Experimental findings from patent US20100061994A1, “MEDICAL USES OF 39-DESMETHOXYRAPAMYCIN AND ANALOGUES THEREOF” (priority 2005, published 2010) are described below.

One series concerns NCI 60 cell line panel. Description: NCI 60 cell line panel monolayer proliferation assay (Protocol 2, SRB) with COMPARE analysis. The class given is cell-based, human. The settings on record: with the exception of one cell line. Here is the method:
The COMPARE analysis uses a Pearson analysis to compare the activity of two compounds on the NCI 60-cell line panel and produces a correlation coefficient which indicates how similar the two compounds spectra of activity are and this may indicate how related their mechanism's of action are.
The human tumor cell lines of the National Cancer Institute (NCI) cancer screening panel were grown in RPMI 1640 medium containing 5% fetal bovine serum and 2 mM L-glutamine (Boyd and Paull, 1995). Cells were inoculated into 96 well microtiter plates in 0.1 mL at plating densities ranging from 5,000 to 40,000 cells/well depending on the doubling time of individual cell lines. […]
Following drug addition, the plates were incubated for an additional 48 h at 37° C., 5% CO2, 95% air, and 100% relative humidity. […] Bound stain was subsequently solubilized with 10 mM trizma base, and the absorbance was read on an automated plate reader at a wavelength of 515 nm. […] Using the seven absorbance measurements [time zero, (Tz), control growth, (C), and test growth in the presence of drug at the five concentration levels (Ti)], the percentage growth was calculated at each of the drug concentrations levels. Percentage growth inhibition was calculated as:
(§1) Three dose response parameters were calculated for each experimental agent. […] The drug concentration resulting in total growth inhibition (TGI) was calculated from Ti=Tz. […]

In a further series the test system is A498. Nature of the series: Monolayer assay Protocol 2 (SRB), high MDR-expressing cell lines. Type of series: cell-based, human. As to conditions: Renal A498, high MDR-expressing, 48 h. The protocol:
(§2) The human tumor cell lines of the National Cancer Institute (NCI) cancer screening panel were grown in RPMI 1640 medium containing 5% fetal bovine serum and 2 mM L-glutamine (Boyd and Paull, 1995). Cells were inoculated into 96 well microtiter plates in 0.1 mL at plating densities ranging from 5,000 to 40,000 cells/well depending on the doubling time of individual cell lines. After cell inoculation, the microtiter plates were incubated at 37° C., 5% CO2, 95% air and 100% relative humidity for 24 h prior to addition of experimental drugs.
(§3) After 24 h, two plates of each cell line were fixed in situ with trichloroacetic acid (TCA), to represent a measurement of the cell population for each cell line at the time of drug addition (Tz). Experimental drugs were solubilized in dimethyl sulfoxide at 400-fold the desired final maximum test concentration and stored frozen prior to use. At the time of drug addition, an aliquot of frozen concentrate was thawed and diluted to twice the desired final maximum test concentration with complete medium containing 0.05 mg/mL gentamicin. Additional four, 10-fold or ½ log serial dilutions were made to provide a total of five drug concentrations plus control. Aliquots of 0.1 mL of these different drug dilutions were added to the appropriate microtiter wells already containing 0.1 mL of medium, resulting in the required final drug concentrations.
(§4) Following drug addition, the plates were incubated for an additional 48 h at 37° C., 5% CO2, 95% air, and 100% relative humidity. For adherent cells, the assay was terminated by the addition of cold TCA. Cells were fixed in situ by the gentle addition of 0.05 mL of cold 50% (w/v) TCA (final concentration, 10% TCA) and incubated for 60 minutes at 4° C. The supernatant was discarded, and the plates were washed five times with tap water and air dried. Sulforhodamine B (SRB) solution (0.1 mL) at 0.4% (w/v) in 1% acetic acid was added to each well, and plates were incubated for 10 minutes at room temperature. After staining, unbound dye was removed by washing five times with 1% acetic acid and the plates were air dried. Bound stain was subsequently solubilized with 10 mM trizma base, and the absorbance was read on an automated plate reader at a wavelength of 515 nm. […] Using the seven absorbance measurements [time zero, (Tz), control growth, (C), and test growth in the presence of drug at the five concentration levels (Ti)], the percentage growth was calculated at each of the drug concentrations levels. Percentage growth inhibition was calculated as:
as §1

The subject of a further series is SF295. The series is described as above. Type of series: cell-based, human. The settings on record: CNS SF295, high MDR-expressing, 48 h. Here is the method:
as §2, §3, §4, §1

The test system of a further series is EAE. Description: Experimental allergic encephalomyelitis (EAE) model of multiple sclerosis. Type of series: in vivo, male Lewis rats.
The conditions of series [1]: mouse, in vivo.
Protocol: (§5) The test compounds were prepared in a vehicle consisting of 4% Ethanol, 5% Tween-20, 5% polyethyleneglycol 400 in 0.15M NaCl. A single dbse of 10 mg/kg p.o. or 3 mg/kg i.v. was administered to groups of female CD1 mice (3 mice for each compound per time point). At 0 min, 4 min, 15 min, 1 h, 4 h, and 24 h groups were sacrificed and the blood and the brain were collected from each mouse for further analysis.
(§6) The brain samples were snap frozen in liquid nitrogen and stored at −20° C. A minimum of 0.2 mL of whole blood from each animal was collected in tubes containing ethylene diamine tetra-acetic acid (EDTA) as anticoagulant, thoroughly mixed, and stored at −20° C.
(§7) Analysis was performed by ASI Limited, (St George's Hospital Medical School, London). The concentration of the test compound in the blood and brain samples supplied was determined by HPLC with MS detection. Control, test compound free, blood samples were obtained from Harlan Sera-Lab Limited, (Loughborough, England). Time zero brain samples were supplied as control, test compound free, brain samples.
(§8) One hemisphere of each brain was homogenized with 5 mL water.
(§9) The control or test sample of mouse brain or blood (0.05 mL), internal standard solution (0.1 mL), 5% Zinc sulphate solution (0.5 mL), and acetone (0.5 mL) were pipetted into a 2 mL polypropylene tube (Sarstedt Limited, Beaumont Leys, Leicester, UK) and the contents were then mixed for a minimum of 5 minutes (IKA-Vibrax-VXR mixer, Merck (BDH) Limited, Poole Dorset, UK). The tubes were then centrifuged in a microfuge for a minimum of 2 minutes. The solvent layer was decanted into a 4.5 mL polypropylene tube containing sodium hydroxide (0.1M, 0.1 mL) and methyl-tert-butyl ether (MTBE, 2 mL). The tube was then mixed for a minimum of 5 minutes (IKA-Vibrax-VXR mixer) and then centrifuged at 3500 rpm for 5 minutes. The solvent layer was transferred to a 4.5 mL conical polypropylene tube, placed in a SpeedVac® and evaporated to dryness.
(§10) The dried extracts were reconstituted with 0.15 mL 80% methanol and mixed for a minimum of 5 minutes (IKA-Vibrax-VXR mixer) and centrifuged at 3500 rpm for 5 minutes. The extract was transferred to auto sampler tubes (NLG Analytical, Adelphi Mill, Bollington, Cheshire, UK) and placed into the auto-sampler tray which was set at ambient temperature. The auto-sampler was programmed to inject a 0.03 mL aliquot of each extract onto the analytical column.
(§11) The AUC for each compound in blood or in brain tissue was calculated using Kinetica 4.4 (InnaPhase Corporation), using a non-compartmental model and the trapezoidal method for AUC calculation.
(§12) The partition coefficient (Ri) for each compound after p.o. and i.v. administration was calculated as shown below:
(§13) The partition coefficient (R) for each compound after i.v. administration was calculated as shown below:
For the next series, the system named is Caco-2 cells. Nature of the series: Caco-2 permeation assay. The settings on record: 0.01 mM. A general note: Caco-2 cells form a polarised layer with tight junctions and transporters.
Series [2] can be described thus: Pharmacokinetic analysis Protocol 2 (blood and brain). Type of series: in vivo, female Balb C mice. The settings on record: female, Balb C, mouse; for Kp: brain / whole blood; for AUC: whole blood, blood, 0-24 h. Here is the method: To prepare the dosing solution, 5 mg test compound was dissolved in 100 μL ethanol resulting in a compound solution of 50 mg/mL. The solution was then diluted to 2 mg/mL by adding approximately 2.4 mL 0.15 M NaCl (0.9% w/v saline), 5% v/v Tween 20 and 5% v/v PEG 400 (final ethanol conc. 4% v/v).
A single dose of 10 mg/kg p.o. or 2 mg/kg i.v. of test compound at a concentration of 10 mg/kg p.o or 2 mg/kg i.v. was administered to groups of 3 female Balb C mice. At 5 min, 15 min, 60 min, 4 h, 8 h and 24 h, groups were sacrificed and whole blood samples of approximately 0.2 mL were retrieved in EDTA to give a final concentration of 0.5 mM, additionally the brains were removed.

The nature of series [3]: Pharmacokinetic analysis Protocol 1 (blood and brain). The settings on record: female, CD1, mouse, 3 mg/kg.
Protocol: as §5, §6, §7, §8, §9, §10, §11, §12, §13
[4] abbreviates: 5 mg/kg p.o., Prophylactic regime.
Setting [5] is: 5 mg/kg p.o., Therapeutic regime.
The mark [6] stands for this setting: 15 mg/kg p.o., Prophylactic regime.
The mark [7] stands for this setting: 15 mg/kg p.o., Therapeutic regime.

Protocol for Caco-2 cells: Confluent Caco-2 cells (Li, A. P., 1992; Grass, G. M., et al., 1992, Volpe, D. A., et al., 2001) in a 24 well Corning Costar Transwell format were provided by In Vitro Technologies Inc. (IVT Inc., Baltimore, Md., USA). The apical chamber contained 0.15 mL Hank's balanced buffer solution (HBBS) pH 7.4, 1% DMSO, 0.1 mM Lucifer Yellow. The basal chamber contained 0.6 mL HBBS pH 7.4, 1% DMSO. Controls and tests were incubated at 37° C. in a humidified incubator, shaken at 130 rpm for 1 h. Lucifer Yellow permeates via the paracellular (between the tight junctions) route only, a high Apparent Permeability (Papp) for Lucifer Yellow indicates cellular damage during assay and all such wells were rejected. […] Compounds were tested in a uni- and bi-directional format by applying compound to the apical or basal chamber (at 0.01 mM). Compounds in the apical or basal chambers were analysed by HPLC-MS (Method A, see Materials & Methods). Results were expressed as Apparent Permeability, Papp, (nm/s) and as the Flux Ratio (A to B versus B to A).
[formula] • Volume Acceptor: 0.6 ml (A>B) and 0.15 ml (B>A) • Area of monolayer: 0.33 cm2 • Δtime: 60 min
A positive value for the Flux Ratio indicates active efflux from the apical surface of the cells.

On to `COC1CC2CCC(C)C(O)(O2)C(=O)C(=O)N2CCCCC2C(=O)OC(C(C)CC2CCC(O)CC2)CC(=O)C(C)C=C(C)C(O)C(OC)C(=O)C(C)CC(C)C=CC=CC=C1C` (stereo not drawn) [39-desmethoxyrapamycin], for which the “efficacy against high MDR-expressing cell lines when compared to rapamycin” value in the series on NCI 60 cell line panel is given as “equivalent or improved efficacy”. Moreover, the “Log GI50” value is reported as −7.07 with A498 and −5.85 in the series on SF295. For the same compound, the “Cumulative score Mean ± St Dev.” value in the series on EAE (setting [4]) is on record as 17 ± 4.6; with EAE (setting [5]), 30 ± 3.1; in the series on EAE (setting [6]) it was 22 ± 22; in the series with EAE (setting [7]), 32 ± 5.7. In addition, the “Duration (days) Mean ± St Dev.” value in the series on EAE (setting [4]) is recorded as 10 ± 1.8 days; in the series on EAE (setting [5]) it was 15 ± 1.3 days; in the series on EAE (setting [6]) it was 10 ± 3.4 days; in the series with EAE (setting [7]) it was 16 ± 3.3 days. The “Onset Mean ± St Dev.” value in the series on EAE (setting [4]) came to 12 ± 2.1; in the series on EAE (setting [5]), 10 ± 1.0; in the series on EAE (setting [6]) it was 12 ± 2.4; in the series with EAE (setting [7]), 9 ± 1.4. Further, in the series with EAE (5 and 15 mg/kg, prophylactic and therapeutic regime), the “efficacy in the EAE model compared to cyclophosphamide” value is “equivalent efficacy in this model to cyclophosphamide”. Moreover, in series [1] (iv, 3 mg/kg), the AUCBLOOD i.v. turned out to be 15444.3. Moreover, the AUCBRAIN i.v. in series [1] (iv, 3 mg/kg) turned out to be 24911.4. For the same compound, in series [1] (po, 10 mg/kg), the AUCBLOOD p.o. is reported as 16856.5. In addition, in series [1] (po, 10 mg/kg), the AUCBRAIN p.o. is 1697.69. The “Caco-2: Efflux Ratio” value in the series on Caco-2 cells (bi-directional format) stood at 15. Further, in the series on Caco-2 cells (pH 7.4, 1 h), the “Caco-2: Papp” value amounted to 2.9 ×10⁻⁶ cm/s.
For the compound `CO[C@H]1C[C@@H]2CC[C@@H](C)[C@@](O)(O2)C(=O)C(=O)N2CCCC[C@H]2C(=O)O[C@H]([C@H](C)C[C@@H]2CC[C@@H](O)[C@H](OC)C2)CC(=O)[C@H](C)/C=C(\C)[C@@H](O)[C@@H](OC)C(=O)[C@H](C)C[C@H](C)/C=C/C=C/C=C/1C` [Rapamycin], the 50% growth inhibitory concentration (GI50) was 251 nM in the series on A498 (Homo sapiens) and 100 nM in the series on SF295 (Homo sapiens, SF-295). Further, the Kp stood at 0.255 in series [2] (intravenous, PK protocol 2, 2 mg/kg i.v., read-out: Ri i.v. (partition coefficient)); 0.066 in series [2] (oral, PK protocol 2, 10 mg/kg p.o., read-out: Ri p.o. (partition coefficient)); 1.13 in series [3] (brain / whole blood, intravenous). Besides, the AUC in series [2] (iv, PK protocol 2, 2 mg/kg i.v., read-out: AUCBLOOD i.v.) amounted to 24900 ng·h/mL; in series [2] (po, PK protocol 2, 10 mg/kg p.o., read-out: AUCBLOOD p.o.), 25200 ng·h/mL; in series [3] (whole blood, iv), 10800 ng·h/mL.

In general, GI50 refers to the concentration that inhibits growth by half. Low values mean more potent growth inhibition, high ones less potent growth inhibition.
